Results from US20250134890A1, “ANTIMALARIAL HEXAHYDROPYRIMIDINE ANALOGUES” (UCB BIOPHARMA SRL, priority 2022, published 2025).
Where a name gives a salt, the structure may show the parent alone.

test system: Plasmodium falciparum: 3D7 strain; assay: P. falciparum 3D7 asexual blood stage assay (SYBR green readout); type: cell-based; details: Plasmodium falciparum, 3D7, Erythrocyte, 72 h, P. falciparum 3D7 in human erythrocytes, 72 h incubation, SYBR green fluorescence
Method in brief: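 3D7-infected erythrocytes (5% haematocrit, 0.5% parasitaemia) were exposed 72 h at 37 °C under 1% O2/3% CO2 to a 20-point titration (50,000-15 nM final, 0.5% DMSO). Parasite DNA was read by SYBR green fluorescence after overnight lysis. Percent inhibition was set against mefloquine and DMSO, and EC50 came from a biphasic two-site fit.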

In order of rising IC50:
1. C[C@H]1C[C@@H](N2C(=N)N[C@](C)(c3cccc(-c4cn(-c5ccccc5)nn4)c3Cl)CC2=O)CCO1 [Example 126, (6S)-6-[2-Chloro-3-(1-phenyl-1,2,3-triazol-4-yl)phenyl]-2-imino-6-methyl-3-[(2S,4S)-2-methyl-tetrahydropyran-4-yl]hexahydro-pyrimidin-4-one trifluoroacetic acid salt]  5 nM
2. C[C@H]1C[C@@H](N2C(=N)N[C@](C)(c3cccc(-c4ccn[nH]4)c3Cl)CC2=O)CCO1 [Example 45, (6S)-6-[2-Chloro-3-(1H-pyrazol-5-yl)phenyl]-2-imino-6-methyl-3-[(2S,4S)-2-methyltetrahydropyran-4-yl]hexahydropyrimidin-4-one trifluoroacetic acid salt]  12 nM
3. C[C@H]1C[C@@H](N2C(=N)N[C@](C)(c3cccc(-c4cccnc4)c3Cl)CC2=O)CCO1 [Example 49, (6S)-6-[2-Chloro-3-(pyridin-3-yl)-phenyl]-2-imino-6-methyl-3-[(2S,4S)-2-methyltetrahydropyran-4-yl]hexahydropyrimidin-4-one trifluoroacetic acid salt]  30 nM
4. COc1cc(-c2cccc([C@]3(C)CC(=O)N([C@H]4CCO[C@@H](C)C4)C(=N)N3)c2Cl)ccn1 [Example 59, (6S)-6-[2-Chloro-3-(2-methoxy-pyridin-4-yl)phenyl]-2-imino-6-methyl-3-[(2S,4S)-2-methyl-tetrahydropyran-4-yl]hexahydro-pyrimidin-4-one trifluoroacetic acid salt]  61 nM
5. C[C@@H]1C[C@H](N2C(=N)N[C@](C)(c3cccc(-c4ccc(F)cc4F)c3Cl)CC2=O)CCS1(=O)=O (relative stereo) [Example 63, (6S)-6-[2-Chloro-3-(2,4-difluoro-phenyl)phenyl]-2-imino-6-methyl-3-[(2R*,4R*)-2-methyl-1,1-dioxo-thian-4-yl]hexahydropyrimidin-4-one hydrochloride]  74 nM
6. C[C@@H]1C[C@H](N2C(=N)N[C@](C)(c3cccc(-c4ccc(OC(F)F)nc4)c3Cl)CC2=O)CCS1(=O)=O (relative stereo) [Example 70, (6S)-6-{2-Chloro-3-[6-(difluoro-methoxy)pyridin-3-yl]phenyl}-2-imino-6-methyl-3-[(2R*,4R*)-2-methyl-1,1-dioxothian-4-yl]-hexahydropyrimidin-4-one hydrochloride]  85 nM
7. C[C@@]1(c2cccc(-c3cccc(Cl)c3)c2Cl)CC(=O)N(C(CO)C2CC2)C(=N)N1 (single isomer, unassigned) [Example 94, (6S)-6-[2-Chloro-3-(3-chloro-phenyl)phenyl]-3-[(1R*)-1-cyclopropyl-2-hydroxyethyl]-2-imino-6-methylhexahydro-pyrimidin-4-one hydrochloride]  88 nM
8. C[C@H]1C[C@@H](N2C(=N)N[C@](C)(c3cccc(-c4ccc(C5CC5)nc4)c3Cl)CC2=O)CCO1 [Example 31, (6S)-6-[2-Chloro-3-(6-cyclopropyl-pyridin-3-yl)phenyl]-2-imino-6-methyl-3-[(2S,4S)-2-methyl-tetrahydropyran-4-yl]hexahydro-pyrimidin-4-one trifluoroacetic acid salt]  180 nM
9. C=C(c1ccccc1)n1cc(-c2cccc([C@]3(C)CC(=O)N([C@H]4CCO[C@@H](C)C4)C(=N)N3)c2Cl)nn1 [Example 121, (6S)-6-{2-Chloro-3-[1-(1-phenyl-vinyl)-1,2,3-triazol-4-yl]phenyl}-2-imino-6-methyl-3-[(2S,4S)-2-methyltetrahydropyran-4-yl]-hexahydropyrimidin-4-one trifluoroacetic acid salt]  185 nM
10. CO[C@@H]1C[C@H](N2C(=N)N[C@](C)(c3cccc(-c4ccc(N=S(C)(C)=O)cc4F)c3Cl)CC2=O)CCC1(F)F (relative stereo) [Example 11, (6S)-6-[2-Chloro-3-(4-{[(dimethyl)-(oxo)-λ^6-sulfanylidene]amino}-2-fluorophenyl)phenyl]-3-[(1R*,3R*)-4,4-difluoro-3-methoxycyclohexyl]-2-imino-6-methylhexahydropyrimidin-4-one hydrochloride]  367 nM
